Assay results from patent US7579439B2, “Modulation of IL-2- and IL-15-mediated T cell responses” (Beth Israel Deaconess Medical Center, Inc., priority 2000, dated 2009).

Key:
[1] = system: IL-2Rγ+ BAF-BO3 cell transfectants that express the IL-2Rβ subunit; test: BAF-BO3 cell proliferation assay (IL-2Rβ transfectants); assay type: cell-based
Description: (§1) In the next series of experiments, the FLAG-HMK-IL-15 fusion protein was tested to determine whether it could function as a biologically active growth factor.

[2] = system: IL-15 binding sites on PHA-activated human PBMCs; test: Cytofluorometric analysis of binding to PBMCs (anti-FLAG biotinylated Ab, streptavidin-RED670); settings: flow cytometry
Description: The FLAG-HMK-IL-15 fusion protein, biotinylated anti-FLAG antibody, and streptavidin-RED670 were employed to detect expression of IL-15 binding sites on human PBMCs by cytofluorometric analysis. The PBMCs tested were either freshly isolated or PHA-activated. These cells were washed and incubated with either medium alone or FLAG-HMK-IL-15 followed by anti-FLAG biotinylated Ab and streptavidin-RED670. The stained cells were analyzed by flow cytometry. […] Both activated CD4^+ and CD8^+ cells express IL-15α chains. Activation induced IL-15Rα chains were also detected on CD14^+ (monocyte/macrophage) cells and CD16^+ (natural killer) cells.
PHA-activated PBMCs were washed and incubated with medium alone, or with the FLAG-HMK-IL-15 double mutant. The cells were then incubated with an anti-FLAG biotinylated antibody and stained with streptavidin conjugated to RED670. The stained cells were analyzed by flow cytometry.

[3] = system: parental BAF-BO3 cells transfected with a vector lacking IL-2Rβ chain sequences; test: BAF-BO3 cell proliferation assay (parental cells, vector lacking IL-2Rβ); assay type: cell-based; settings: parental BAF-BO3 cells lacking IL-2Rβ
Description: In the next series of experiments, the FLAG-HMK-IL-15 fusion protein was tested to determine whether it could function as a biologically active growth factor. […] Thus, FLAG-HMK-IL-15 is a biologically active growth factor that requires expression of IL-2Rβ chains upon target cells in order to stimulate cellular proliferation.

[4] = system: PHA-activated human PBMCs; test: [3H]-TdR incorporation assay, PHA-activated PBMCs; assay type: cell-based
Description: as §1

human IL-15Rα subunit = molecular target: T1, human IL-15Rα subunit (Homo sapiens, UniProt Q13261); test: Cross-linking of [32P]-FLAG-HMK-IL-15 to PHA-activated PBMCs (DSS, SDS-PAGE autoradiography); assay type: binding; settings: cross-linked with DSS; band lost with molar excess of hIL-15
T1 construct: endogenous in cells
Description: The purified FLAG-HMK-IL-15 fusion protein was tested to determine whether it interacts with cell surface IL-15 receptors. As described above, [^32P]-FLAG-HMK-IL-15 was added to cultures of PBMCs that were activated by a mitogen, PHA. In order to permanently bind interactive proteins to one another, the chemical cross-linker disuccinimidyl suberate (DSS) was added. The cells were washed, lysed, centrifuged, and detergent-soluble proteins were separated by SDS-PAGE. […] The identity of this band as the IL-15Rα subunit was confirmed by cross-linking experiments conducted in the presence of a molar excess of hIL-15.

[5] = system: leukemic cell lines MOLT-14, YT, HuT-102, 2A and 2B; test: FACS analysis of leukemic cell lines stained with FLAG-HMK-IL-15; assay type: binding; settings: flow cytometry
Description: The cells treated were obtained from the leukemic cell lines MOLT-14, YT, HuT-102, and from cell lines currently being established at Beth Israel Hospital (Boston, Mass.), and named 2A and 2B. The cultured cells were washed and incubated with either medium alone or with medium containing the FLAG-HMK-IL-15 wild-type polypeptide. The cells were then incubated with the biotinylated anti-FLAG antibody and stained with RED670-conjugated streptavidin. The stained cells were analyzed by flow cytometry.

[6] = system: T cells at the second cell division in vivo; test: In vitro proliferation of sorted in vivo dividing T cells (3H-TdR uptake); assay type: cell-based, mice; settings: IL-2 in doses as high as; IL-15 5 ng/ml; 48 hours
Description: CFSE-labeled lymphocytes were stimulated in vivo for three days and cell division was analyzed by examining the CFSE profile. T cells in the second cell division were sorted and cells (1×10^4) were cultured in vitro with IL-2 or IL-15 for two days. Cellular proliferation was determined by ^3H-TdR uptake. The results are presented as the mean CPM±SD of triplicate assays.
Cell sorting and in vitro proliferation assays were carried out as follows. CFSE-labeled cells were prepared from irradiated allogeneic hosts three days after intravenous injection of labeled cells, and cell proliferation in vivo was identified by analysis of the cells' CFSE profile. The second cell division was selected, gated, and sorted with FACS Vantage™. Cells (1×10^4/ml) were resuspended in RPMI 1640 medium with 10% FCS and 1% penicillin and streptomycin, and stimulated with IL-2 (40 μ/ml to 500 μ/ml) or IL-15 (5 ng/ml) for 48 hours. Cells were pulsed with 1 mCi 3H-TdR (Amersham, Boston, Mass.) for 16 hours and ^3H-TdR uptake was determined by scintillation counting (Beckman Instrument, Columbia, Md.).

T1 sequence (Q13261 31-267): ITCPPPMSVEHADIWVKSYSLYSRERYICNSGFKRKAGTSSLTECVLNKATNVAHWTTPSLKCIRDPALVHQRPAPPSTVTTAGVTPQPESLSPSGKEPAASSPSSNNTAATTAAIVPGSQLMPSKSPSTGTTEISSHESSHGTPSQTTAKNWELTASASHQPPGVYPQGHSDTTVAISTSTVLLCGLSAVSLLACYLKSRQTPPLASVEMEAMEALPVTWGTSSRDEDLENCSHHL

binding to the IL-15Rα subunit on the surface of mitogen-activated PBMCs (human IL-15Rα subunit) | Substance | inhibition of BAF-BO3 proliferation ([1]; 30 μl versus 20 μL of approximately 50 μg/ml) | binding to PHA activated PBMCs [2] | stimulation of proliferation [3] | stimulation of cell proliferation [4] | stimulation of proliferation ([1]; BAF-BO3 transfectants expressing IL-2Rβ) | binding to leukemia cells [5] | T cell proliferation by 3H-TdR uptake [6]
 | FLAG-HMK-IL-15 double mutant: human IL-15 protein bearing a double mutation (Q149D; Q156D), FLAG-HMK tagged | inhibit BAF-BO3 proliferation in a dose-dependent manner | bind PHA activated human PBMCs was demonstrated |  |  |  |  | 
site specific binding | FLAG-HMK-IL-15: IL-15 polypeptide having an N-terminus covalently bound to the 18 amino acid FLAG-HMK-sequence |  | blocked by a molar excess of rIL-15 | does not, however, stimulate the proliferation | proliferate in response to | stimulates proliferation | bind leukemia cells was shown | 
 | IL-15: recombinant human IL-15 |  |  |  |  |  |  | stimulated vigorous cell proliferation
